Values of other authors as cited in article PMC5941251 (Molecular Pharmaceutics, 2018).

## CC1(C)C(/C=C/C=C/C=C/C=C2\N(CCCCS(=O)(=O)O)c3ccc4ccccc4c3C2(C)C)=[N+](CCCCS(=O)(=O)[O-])c2ccc3ccccc3c21 [ICG, indocyanine green]
  risk of anaphylactic shock: 0.05–0.2%
